Test results from PubChem BioAssay AID248 (DTP/NCI, 2004).
Several values for one entry are separate records, joined by “and”; a condition that tells them apart may be missing. Identical values can stand only once. Inconclusive results and toxic doses are left out. No stated cut-off is given here; in the data, active means T/C of 150% or more; inactive means T/C below 125%. Peptide text beside a SMILES is read from it. * marks the point of attachment. Trt = c1ccc(C(c2ccccc2)(c2ccccc2)*)cc1; Boc = CC(C)(C)OC(=O)*

Test system: L1210 leukemia ip in BDF1 mice, survival T/C
Test: NCI In Vivo Anticancer Drug Screen. Data for tumor model L1210 Leukemia (intraperitoneal) in B6D2F1 (BDF1) mice
Conditions: endpoint: mean survival time, higher = longer survival
Procedure, shortened: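 Transplantable tumor model; survival measured in treated vs vehicle control mice. Value = treated/control.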

[1] = dose: 25.0 mg/kg/injection, schedule: Q04DX003 (ip), vehicle: saline with Tween-80
[2] = dose: 50.0 mg/kg/injection, schedule: Q04DX003 (ip), vehicle: saline with Tween-80
[3] = dose: 100.0 mg/kg/injection, schedule: Q04DX003 (ip), vehicle: saline with Tween-80
[4] = dose: 75.0 mg/kg/injection, schedule: Q01DX001 (ip), vehicle: carboxymethylcellulose (CMC)
[5] = dose: 100.0 mg/kg/injection, schedule: Q01DX001 (ip), vehicle: carboxymethylcellulose (CMC)
[6] = dose: 100.0 mg/kg/injection, schedule: Q04DX003 (ip), vehicle: saline
[7] = dose: 200.0 mg/kg/injection, schedule: Q01DX001 (ip), vehicle: carboxymethylcellulose (CMC)
[8] = dose: 200.0 mg/kg/injection, schedule: Q04DX003 (ip), vehicle: saline
[9] = dose: 400.0 mg/kg/injection, schedule: Q01DX001 (ip), vehicle: carboxymethylcellulose (CMC)
[10] = dose: 100.0 mg/kg/injection, schedule: Q01DX009 (ip), vehicle: saline with Tween-80
[11] = dose: 200.0 mg/kg/injection, schedule: Q01DX009 (ip), vehicle: saline with Tween-80
[12] = dose: 400.0 mg/kg/injection, schedule: Q01DX009 (ip), vehicle: saline with Tween-80
[13] = dose: 100.0 mg/kg/injection, schedule: Q04DX002 (ip), vehicle: Klucel (hydroxypropylcellulose) (HPC)
[14] = dose: 200.0 mg/kg/injection, schedule: Q04DX002 (ip), vehicle: Klucel (hydroxypropylcellulose) (HPC)
[15] = dose: 400.0 mg/kg/injection, schedule: Q04DX002 (ip), vehicle: Klucel (hydroxypropylcellulose) (HPC)
[16] = dose: 100.0 mg/kg/injection, schedule: Q01DX001 (ip), vehicle: saline
[17] = dose: 200.0 mg/kg/injection, schedule: Q01DX001 (ip), vehicle: saline
[18] = dose: 400.0 mg/kg/injection, schedule: Q01DX001 (ip), vehicle: saline

Measured: T/C

CCOC(=O)CN(C(=O)OCc1ccccc1)N(C)C(=O)OCc1ccccc1
inactive: [1] 101 % of control | [2] 94 % of control | [3] 101 % of control | dose: 200.0 mg/kg/injection, schedule: Q04DX003 (ip), vehicle: saline with Tween-80 97 % of control | dose: 400.0 mg/kg/injection, schedule: Q04DX003 (ip), vehicle: saline with Tween-80 101 % of control

CCOC(=O)/C=C/C(=O)O
inactive: dose: 50.0 mg/kg/injection, schedule: Q01DX001 (ip), vehicle: carboxymethylcellulose (CMC) 111 % of control | [4] 86 % of control | [5] 105 % of control | [6] 95 % of control and 109 % of control | [7] 114 % of control | [8] 103 % of control and 109 % of control | [9] 101 % of control | dose: 400.0 mg/kg/injection, schedule: Q04DX003 (ip), vehicle: saline 95 % of control and 97 % of control

CCCCCCNC(=O)c1ccc(C(=O)NCCCCCC)cc1
inactive: dose: 100.0 mg/kg/injection, schedule: Q01DX009 (ip), vehicle: Klucel (hydroxypropylcellulose) (HPC) 94 % of control and 101 % of control | dose: 200.0 mg/kg/injection, schedule: Q01DX009 (ip), vehicle: Klucel (hydroxypropylcellulose) (HPC) 102 % of control | dose: 400.0 mg/kg/injection, schedule: Q01DX009 (ip), vehicle: Klucel (hydroxypropylcellulose) (HPC) 95 % of control and 90 % of control

COn1c(=O)[nH]c2ccccc2c1=O
inactive: [10] 94 % of control | [11] 91 % of control | [12] 97 % of control

O=[N+]([O-])c1ccc2c(c1)-c1ccccc1C2Cl (stereo unspecified)
inactive: dose: 100.0 mg/kg/injection, schedule: Q01DX005 (ip), vehicle: Klucel (hydroxypropylcellulose) (HPC) 94 % of control | [13] 111 % of control | dose: 200.0 mg/kg/injection, schedule: Q01DX005 (ip), vehicle: Klucel (hydroxypropylcellulose) (HPC) 91 % of control | [14] 101 % of control | dose: 400.0 mg/kg/injection, schedule: Q01DX005 (ip), vehicle: Klucel (hydroxypropylcellulose) (HPC) 88 % of control | [15] 96 % of control

COc1ccccc1NC(=O)NCc1cccc2ccccc12
inactive: [13] 107 % of control | [14] 104 % of control | [15] 100 % of control

COc1ccc(C(O)(c2ccccc2)C(OC(=O)c2cc([N+](=O)[O-])cc([N+](=O)[O-])c2)c2ccccc2)cc1 (stereo unspecified)
inactive: [10] 91 % of control | [11] 96 % of control | [12] 95 % of control

CC(C)(C)OC(=O)NCCCCC(NC(=O)CNC(=O)C(CSC(c1ccccc1)(c1ccccc1)c1ccccc1)NC(=O)OC(C)(C)C)C(=O)O (stereo unspecified) (Boc-Cys(Trt)-Gly-Lys(Boc)-OH; configuration not given here)
inactive: [1] 96 % of control | [2] 98 % of control | [3] 94 % of control

Cc1cc(/C=C/c2ccccc2)nc2ccccc12
inactive: [16] 96 % of control | [17] 100 % of control | [18] 90 % of control

NC(=O)N1CCCC1
inactive: [16] 98 % of control | [17] 95 % of control | [18] 95 % of control

O=S(=O)(O)F
inactive: dose: 50.0 mg/kg/injection, schedule: Q04DX003 (ip), vehicle: saline 96 % of control | [16] 94 % of control | [6] 89 % of control | [17] 94 % of control | [8] 96 % of control

CCCCC(SC(CC)(C(C)=O)c1ccccc1)C(N)=O (stereo unspecified)
inactive: [5] 102 % of control | [7] 113 % of control | [9] 96 % of control

Cc1cccc(NC(=S)N(C)C)c1
inactive: [10] 99 % of control | [11] 101 % of control | [12] 94 % of control

CN(CCO)CC1C(c2ccccc2)C1c1ccccc1 (stereo unspecified)
inactive: dose: 12.5 mg/kg/injection, schedule: Q04DX002 (ip), vehicle: Klucel (hydroxypropylcellulose) (HPC) 97 % of control | dose: 25.0 mg/kg/injection, schedule: Q04DX002 (ip), vehicle: Klucel (hydroxypropylcellulose) (HPC) 94 % of control | dose: 50.0 mg/kg/injection, schedule: Q04DX002 (ip), vehicle: Klucel (hydroxypropylcellulose) (HPC) 90 % of control

O=Nc1c(S(=O)(=O)O)cc2cc(S(=O)(=O)O)cc(O)c2c1O.[Cu+2]
inactive: dose: 0.16 mg/kg/injection, schedule: Q01DX009 (ip), vehicle: saline 95 % of control | dose: 0.31 mg/kg/injection, schedule: Q01DX009 (ip), vehicle: saline 103 % of control | dose: 0.63 mg/kg/injection, schedule: Q01DX009 (ip), vehicle: saline 92 % of control | dose: 1.25 mg/kg/injection, schedule: Q04DX003 (ip), vehicle: saline 102 % of control | dose: 2.5 mg/kg/injection, schedule: Q04DX003 (ip), vehicle: saline 102 % of control | dose: 5.0 mg/kg/injection, schedule: Q04DX003 (ip), vehicle: saline 94 % of control

CC(C)(C)C1=C(C(C)(C)C)CS(=O)(=O)C1
inactive: dose: 25.0 mg/kg/injection, schedule: Q01DX001 (ip), vehicle: saline with Tween-80 98 % of control | dose: 50.0 mg/kg/injection, schedule: Q01DX001 (ip), vehicle: saline with Tween-80 100 % of control | dose: 100.0 mg/kg/injection, schedule: Q01DX001 (ip), vehicle: saline with Tween-80 100 % of control and 107 % of control

CC(O)C(Cl)(Cl)Cl (stereo unspecified)
inactive: [4] 100 % of control | dose: 150.0 mg/kg/injection, schedule: Q01DX001 (ip), vehicle: carboxymethylcellulose (CMC) 98 % of control | dose: 300.0 mg/kg/injection, schedule: Q01DX001 (ip), vehicle: carboxymethylcellulose (CMC) 106 % of control
